Values quoted from earlier work, collected in patent publication US11439578B2, “Agent for dyeing hair, containing at least one organic silicon compound, a coloring compound and a film-forming, hydrophilic polymer” (Henkel AG & Co. KGaA, priority 2018, dated 2022).

Conditions: about 25° C.

solubility in water (in words) | Compound | solubility in water
– | CCN(Cc1cccc(S(=O)(=O)[O-])c1)c1ccc(C(=C2C=CC(=[N+](CC)Cc3cccc(S(=O)(=O)[O-])c3)C=C2)c2ccccc2S(=O)(=O)[O-])cc1.[Na+].[Na+] [Acid Blue 9] | more than 20 % by weight
– | O=S(=O)([O-])c1ccc(N=Nc2c(O)ccc3ccccc23)cc1.[Na+] [Acid Orange 7, sodium salt of 4-[(2-hydroxy-1-naphthyl)azo]benzene sulphonate] | more than 7 g/L
– | Nc1cc(S(=O)(=O)[O-])cc2cc(S(=O)(=O)[O-])c(N=Nc3ccccc3)c(O)c12.[Na+].[Na+] [Acid Red 33, disodium salt of 5-amino-4-hydroxy-3-(phenylazo)-naphthalene-2,7-disulphonate] | about 2.5 g/L
– | O=C([O-])c1c(Cl)c(Cl)c(Cl)c(Cl)c1-c1c2c(Br)cc(=O)c(Br)c-2oc2c(Br)c(O)cc(Br)c12.O=C([O-])c1c(Cl)c(Cl)c(Cl)c(Cl)c1-c1c2c(Br)cc(=O)c(Br)c-2oc2c(Br)c(O)cc(Br)c12.[Na+].[Na+] [Acid Red 92, disodium salt of 3,4,5,6-tetrachloro-2-(1,4,5,8-tetrabromo-6-hydroxy-3-oxoxanthen-9-yl)benzoic acid] | greater than 10 g/L
highly soluble in water | O=C([O-])C1=NN(c2ccc(S(=O)(=O)[O-])cc2)C(=O)C1N=Nc1ccc(S(=O)(=O)[O-])cc1.[Na+].[Na+].[Na+] (centres unmarked) [Acid Yellow 23, trisodium salt of 4,5-dihydro-5-oxo-1-(4-sulfophenyl)-4-((4-sulfophenyl)azo)-1H-pyrazole-3-carboxylic acid] | –
